Test results as given in patent publication US12077503B2, “Substituted cyclic amides and their use as herbicides” (FMC CORPORATION, priority 2015, dated 2024).

Experiments:
Assay type in all cases: in vivo
[1] = tested on: giant foxtail (Setaria faberii); experiment: Test A postemergence
Method in brief: (§1)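 Greenhouse, ~10 d after spray; visual injury vs untreated controls, 0 = no effect, 100 = complete control. Preemergence: directed soil spray over planted seeds. Postemergence: plants 2–10 cm, 1–2 leaf stage. Loam/sand blend. Compound in non-phytotoxic solvent with surfactant.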

[2] = tested on: barnyardgrass (Echinochloa crus-galli); experiment: Test A postemergence
Method in brief: as §1

Kochia (Kochia scoparia) [3] = experiment: Test A postemergence
Method in brief: as §1

[4] = tested on: blackgrass (Alopecurus myosuroides); experiment: Test A postemergence
Method in brief: as §1

[5] = tested on: ryegrass, Italian (Italian ryegrass, Lolium multiflorum); experiment: Test A postemergence
Method in brief: as §1

[6] = tested on: pigweed (Amaranthus retroflexus); experiment: Test A postemergence
Method in brief: as §1

corn (Zea mays) = experiment: Test A postemergence
Method in brief: as §1

[7] = tested on: wheat (Triticum aestivum); experiment: Test A postemergence
Method in brief: as §1

[8] = tested on: ragweed (common ragweed, Ambrosia elatior); experiment: Test A postemergence
Method in brief: as §1

[9] = tested on: Galium (catchweed bedstraw, Galium aparine); experiment: Test A postemergence
Method in brief: as §1

[10] = tested on: giant foxtail (Setaria faberii); experiment: Test A preemergence
Method in brief: as §1

[11] = tested on: barnyardgrass (Echinochloa crus-galli); experiment: Test A preemergence
Method in brief: as §1

Kochia (Kochia scoparia) [12] = experiment: Test A preemergence
Method in brief: as §1

[13] = tested on: ryegrass, Italian (Italian ryegrass, Lolium multiflorum); experiment: Test A preemergence
Method in brief: as §1

[14] = tested on: pigweed (Amaranthus retroflexus); experiment: Test A preemergence
[15] = tested on: ragweed (common ragweed, Ambrosia elatior); experiment: Test A preemergence
Method in brief: as §1

[16] = tested on: sedge, umbrella (small-flower umbrella sedge, Cyperus difformis); experiment: Test B flooded paddy test; settings: Flood, 250 g ai/ha; 0 to 100 scale where 0 is no effect and 100 is complete control; 13 to 15 d
Method in brief: (§2)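 Evaluation by eye, against controls, occurred 13–15 d post-treatment in a greenhouse, using a 0 (no effect) to 100 (complete control) scale. Application was into the paddy water, 3 cm deep over the soil, on 2-leaf plants.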

[17] = tested on: barnyardgrass (Echinochloa crus-galli); experiment: Test B flooded paddy test; settings: Flood, 250 g ai/ha; 0 to 100 scale where 0 is no effect and 100 is complete control; 13 to 15 d
Method in brief: as §2

rice (Oryra sativa) = experiment: Test B flooded paddy test; settings: Flood, 250 g ai/ha; 0 to 100 scale where 0 is no effect and 100 is complete control; 13 to 15 d
Method in brief: as §2

[18] = tested on: ducksalad (Heteranthera limosa); experiment: Test B flooded paddy test; settings: Flood, 250 g ai/ha; 0 to 100 scale where 0 is no effect and 100 is complete control; 13 to 15 d
Method in brief: as §2

[19] = 125 g ai/ha, postemergence, visual rating after approx. 10 d, 0 to 100 scale (0 no effect, 100 complete control)
[20] = 500 g ai/ha, postemergence, visual injury, 0 to 100 scale (0 no effect, 100 complete control), approx. 10 d
[21] = 125 g ai/ha, Preemergence, visual injury after approximately 10 d, 0 to 100 scale where 0 is no effect and 100 is complete control
[22] = 500 g ai/ha, preemergence, 0 to 100 scale, 0 = no effect, 100 = complete control
[23] = 125 g ai/ha, postemergence, visual injury rating on 0 to 100 scale (0 no effect, 100 complete control), approx. 10 d
[24] = Postemergence, 500 g ai/ha, 0 to 100 scale where 0 is no effect and 100 is complete control
[25] = Preemergence, 500 g ai/ha, visual injury approx. 10 d
[26] = 500 g ai/ha, postemergence, 0 to 100 scale, 0 no effect, 100 complete control
[27] = Postemergence, 125 g ai/ha, visual injury, 0 to 100 scale (0 no effect, 100 complete control), approx. 10 d
[28] = 125 g ai/ha, preemergence, 0 to 100 scale (0 no effect, 100 complete control)
[29] = Preemergence, 500 g ai/ha, 0 is no effect, 100 is complete control

In the case of `O=C1NCC(c2csc(Br)c2)C1C(=O)Nc1cccc(F)c1F` (racemic) [Compound 649], the “Plant response rating, Foxtail, Giant” value [1, 19] is reported as 30, the “Plant response rating, Foxtail, Giant” value [1, 20] is reported as 60 and the “Plant response rating, Barnyardgrass” value [2, 19] is reported as 60. The “Plant response rating, Barnyardgrass” value [2, 20] was 70, the “Plant response rating, Kochia” value (Kochia (Kochia scoparia) [3]; [19]) was 30 and the “Plant response rating, Kochia” value (Kochia (Kochia scoparia) [3]; [20]) was 60. The “Plant response rating, Blackgrass” value [4, 19] was 20, the “Plant response rating, Blackgrass” value [4, 20] was 60 and the “Plant response rating, Ryegrass, Italian” value [5, 19] was 30. For the same molecule, the “Plant response rating, Ryegrass, Italian” value [5, 20] was 40, the “Plant response rating, Pigweed” value [6, 19] was 0 and the “Plant response rating, Pigweed” value [6, 20] was 30. For the same molecule, the “Plant response rating, Corn” value (corn (Zea mays); [19]) was 0, the “Plant response rating, Corn” value (corn (Zea mays); [20]) was 0 and the “Plant response rating, Wheat” value [7, 19] was 0. The “Plant response rating, Wheat” value [7, 20] was 0, the “Plant response rating, Ragweed” value [8, 19] was 20 and the “Plant response rating, Ragweed” value [8, 20] was 60. The “Plant response rating, Galium” value [9, 19] was 50, the “Plant response rating, Galium” value [9, 20] was 70 and the “Plant response rating, Foxtail, Giant” value [10, 21] was 50. The “Plant response rating, Foxtail, Giant” value [10, 22] was 70, the “Plant response rating, Barnyardgrass” value [11, 21] was 80 and the “Plant response rating, Barnyardgrass” value [11, 22] was 90. The “Plant response rating, Kochia” value (Kochia (Kochia scoparia) [12]; [21]) was 60, the “Plant response rating, Kochia” value (Kochia (Kochia scoparia) [12]; [22]) was 70 and the “Plant response rating, Ryegrass, Italian” value [13, 21] was 30. For the same molecule, the “Plant response rating, Ryegrass, Italian” value [13, 22] was 70, the “Plant response rating, Pigweed” value [14, 21] was 50 and the “Plant response rating, Pigweed” value [14, 22] was 60. The “Plant response rating, Ragweed” value [15, 21] was 20, the “Plant response rating, Ragweed” value [15, 22] was 70 and the “Plant response rating, Sedge, Umbrella” value [16] was 0. For the same molecule, the “Plant response rating, Barnyardgrass” value [17] was 60, the “Plant response rating, Rice” value (rice (Oryra sativa)) was 0 and the “Plant response rating, Ducksalad” value [18] was 100.

With `CN1CC(c2cccc(Br)c2)C(C(=O)Nc2cccc(F)c2F)C1=O` (stereo not drawn) [Compound 520] the “Foxtail, Giant plant response rating” value [1, 23] was 80, the “Plant response rating, Foxtail, Giant” value [1, 24] was 80 and the “Barnyardgrass plant response rating” value [2, 23] was 90. The “Plant response rating, Barnyardgrass” value [2, 24] was 90, the “Kochia plant response rating” value (Kochia (Kochia scoparia) [3]; [23]) was 60 and the “Plant response rating, Kochia” value (Kochia (Kochia scoparia) [3]; [24]) was 70. For the same molecule, the “Blackgrass plant response rating” value [4, 23] was 70, the “Plant response rating, Blackgrass” value [4, 24] was 70 and the “Ryegrass, Italian plant response rating” value [5, 23] was 40. For the same molecule, the “Plant response rating, Ryegrass, Italian” value [5, 24] was 80, the “Pigweed plant response rating” value [6, 23] was 40 and the “Plant response rating, Pigweed” value [6, 24] was 50. For the same molecule, the “Corn plant response rating” value (corn (Zea mays); [23]) was 60, the “Plant response rating, Corn” value (corn (Zea mays); [24]) was 70 and the “Wheat plant response rating” value [7, 23] was 50. For the same molecule, the “Plant response rating, Wheat” value [7, 24] was 70, the “Ragweed plant response rating” value [8, 23] was 30 and the “Plant response rating, Ragweed” value [8, 24] was 30. The “Galium plant response rating” value [9, 23] was 60, the “Plant response rating, Galium” value [9, 24] was 60 and the “Plant response rating, Foxtail, Giant” value [10, 21] was 90. The “Foxtail, Giant plant response rating (0 to 100 scale, 0 is no effect, 100 is complete control)” value [10, 25] was 90, the “Plant response rating, Barnyardgrass” value [11, 21] was 90 and the “Barnyardgrass plant response rating (0 to 100 scale, 0 is no effect, 100 is complete control)” value [11, 25] was 90. For the same molecule, the “Plant response rating, Kochia” value (Kochia (Kochia scoparia) [12]; [21]) was 50, the “Kochia plant response rating (0 to 100 scale, 0 is no effect, 100 is complete control)” value (Kochia (Kochia scoparia) [12]; [25]) was 70 and the “Plant response rating, Ryegrass, Italian” value [13, 21] was 30. For the same molecule, the “Ryegrass, Italian plant response rating (0 to 100 scale, 0 is no effect, 100 is complete control)” value [13, 25] was 50, the “Plant response rating, Pigweed” value [14, 21] was 30 and the “Pigweed plant response rating (0 to 100 scale, 0 is no effect, 100 is complete control)” value [14, 25] was 80. The “Plant response rating, Ragweed” value [15, 21] was 0, the “Ragweed plant response rating (0 to 100 scale, 0 is no effect, 100 is complete control)” value [15, 25] was 50 and the “Plant response rating, Sedge, Umbrella” value [16] was 0. The “Plant response rating, Barnyardgrass” value [17] was 65, the “Plant response rating, Rice” value (rice (Oryra sativa)) was 0 and the “Plant response rating, Ducksalad” value [18] was 100.

With `Cc1cccc(C2CNC(=O)C2C(=O)Nc2ccccc2F)c1` (racemic) [Compound 372] the “Plant response rating, Foxtail, Giant” value [1, 26] was 70, the “Plant response rating, Foxtail, Giant” value [1, 27] was 50 and the “Plant response rating, Barnyardgrass” value [2, 26] was 80. The “Plant response rating, Barnyardgrass” value [2, 27] was 80, the “Plant response rating, Kochia” value (Kochia (Kochia scoparia) [3]; [26]) was 40 and the “Plant response rating, Kochia” value (Kochia (Kochia scoparia) [3]; [27]) was 0. For the same molecule, the “Plant response rating, Blackgrass” value [4, 26] was 30, the “Plant response rating, Blackgrass” value [4, 27] was 20 and the “Plant response rating, Ryegrass, Italian” value [5, 26] was 40. The “Plant response rating, Ryegrass, Italian” value [5, 27] was 20, the “Plant response rating, Pigweed” value [6, 26] was 30 and the “Plant response rating, Pigweed” value [6, 27] was 20. The “Plant response rating, Corn” value (corn (Zea mays); [26]) was 20, the “Plant response rating, Corn” value (corn (Zea mays); [27]) was 0 and the “Plant response rating, Wheat” value [7, 26] was 20. The “Plant response rating, Wheat” value [7, 27] was 0, the “Plant response rating, Ragweed” value [8, 26] was 0 and the “Plant response rating, Ragweed” value [8, 27] was 0. For the same molecule, the “Plant response rating, Galium” value [9, 26] was 20, the “Plant response rating, Galium” value [9, 27] was 0 and the “Plant response rating, Foxtail, Giant” value [10, 28] was 80. The “Foxtail, Giant plant response rating (0 to 100 scale)” value [10, 29] was 90, the “Plant response rating, Barnyardgrass” value [11, 28] was 90 and the “Barnyardgrass plant response rating (0 to 100 scale)” value [11, 29] was 90. The “Plant response rating, Kochia” value (Kochia (Kochia scoparia) [12]; [28]) was 0, the “Kochia plant response rating (0 to 100 scale)” value (Kochia (Kochia scoparia) [12]; [29]) was 0 and the “Plant response rating, Ryegrass, Italian” value [13, 28] was 0. For the same molecule, the “Ryegrass, Italian plant response rating (0 to 100 scale)” value [13, 29] was 30, the “Plant response rating, Pigweed” value [14, 28] was 0 and the “Pigweed plant response rating (0 to 100 scale)” value [14, 29] was 50. The “Plant response rating, Ragweed” value [15, 28] was 0, the “Ragweed plant response rating (0 to 100 scale)” value [15, 29] was 30 and the “Plant response rating, Sedge, Umbrella” value [16] was 0. The “Plant response rating, Barnyardgrass” value [17] was 60, the “Plant response rating, Rice” value (rice (Oryra sativa)) was 35 and the “Plant response rating, Ducksalad” value [18] was 100.
